In patent US6953800B2, “Use of selective antagonists of the α1B-adrenergic receptor for improvement of sexual dysfunction” (Recordati S.A. Chemical, priority 1999, dated 2005):
Several values for one entry are separate records, joined by “and”; a condition that tells them apart may be missing. Equal entries are not always repeated.

Assays:
anaesthetised dogs = test: Intracavernous and blood pressure recording in dogs
Experimental: Male beagle dogs were anaesthetised with pentobarbital sodium (i.v. Nembutal, 35 mg/kg for induction and 4 mg/kg/h for maintenance) and intubated with an endotracheal cuffed tube to facilitate free ventilation. A collateral of the left femoral vein was cannulated with a PE catheter for infusion of the anaesthetic. Systemic BP was monitored via a Mikro-tip 6F (Millar Instruments) pressure transducer introduced into the aortic arch through the right common carotid artery. ICP was measured by means of a 20-gauge needle placed into the left or right corpus cavernosum and the same needle was used for intracavernous injection of the drugs. The needle was attached to a catheter filled with heparinized saline (25 IU/mL). […] The compounds to be tested were injected intracavernously in a volume of 0.5 ml and, after each injection, the needle was flushed with 0.5 ml of saline. The vehicles for compound dissolution were tested before the first dose of each drug. The compounds were administered in a cumulative way, with a 30-minute interval between doses. ICP (mmHg) was measured at the peak effect after the administration of the compounds. The duration of tumescence (DT, min) was measured from the beginning of the rise of ICP over its basal value up to the return to baseline. The systolic blood pressure and diastolic blood pressure (mmHg) were measured at the peak effect after the administration of compounds, in order to evaluate the effects of the compounds on BP independently from the effects on ICP. Moreover, the systolic blood pressure was measured at the time of maximal ICP value after intracavernous injection, to evaluate the ICP/BP ratios. […] The data were reported as mean ±s.e. of the mean, or percent variation (±s.e.) of the basal values.

bovine α1a-adrenoceptor = biological target: T1, bovine α1a-adrenoceptor (Bos taurus, UniProt P18130); test: [3H]Prazosin binding, bovine α1a-adrenoceptor in COS-7 cell membranes; conditions: bovine α1a, COS-7 membranes; read-out: Affinity (Ki) α1a, animal cloned receptors
T1 construct: expressed in transfected cells; host or cells: COS-7 cells (transient), membranes
T1 sequence (P18130 1-466): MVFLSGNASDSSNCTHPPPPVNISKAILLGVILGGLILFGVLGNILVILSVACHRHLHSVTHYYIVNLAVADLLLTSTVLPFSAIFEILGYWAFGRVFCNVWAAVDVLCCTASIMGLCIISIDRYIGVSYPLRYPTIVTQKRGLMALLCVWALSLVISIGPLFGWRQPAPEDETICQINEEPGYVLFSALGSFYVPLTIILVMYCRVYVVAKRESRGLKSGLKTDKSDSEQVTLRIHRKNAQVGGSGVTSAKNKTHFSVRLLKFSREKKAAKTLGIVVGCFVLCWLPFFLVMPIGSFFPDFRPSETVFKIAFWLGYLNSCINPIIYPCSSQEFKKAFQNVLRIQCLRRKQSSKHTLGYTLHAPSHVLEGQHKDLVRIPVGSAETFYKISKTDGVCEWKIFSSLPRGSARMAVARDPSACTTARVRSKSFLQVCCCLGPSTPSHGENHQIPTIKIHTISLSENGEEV
Experimental: (§1) The incubation was stopped by addition of ice-cold Tris buffer and rapid filtration through 0.2% polyethyleneimine pretreated Whatman GF/B or Schleicher & Schuell GF52 filters.
(§2) Data are expressed as mean Ki. All patents and other references cited herein are incorporated by reference in their entirety.

hamster α1b-adrenoceptor = biological target: T2, hamster α1b-adrenoceptor (Mesocricetus auratus, UniProt P18841); test: [3H]Prazosin binding, hamster α1b-adrenoceptor in COS-7 cell membranes; conditions: COS-7 membranes, read-out: Affinity (Ki) α1b, animal cloned receptors
T2 construct: expressed in transfected cells; host or cells: COS-7 cells (transient), membranes
T2 sequence (P18841 1-515): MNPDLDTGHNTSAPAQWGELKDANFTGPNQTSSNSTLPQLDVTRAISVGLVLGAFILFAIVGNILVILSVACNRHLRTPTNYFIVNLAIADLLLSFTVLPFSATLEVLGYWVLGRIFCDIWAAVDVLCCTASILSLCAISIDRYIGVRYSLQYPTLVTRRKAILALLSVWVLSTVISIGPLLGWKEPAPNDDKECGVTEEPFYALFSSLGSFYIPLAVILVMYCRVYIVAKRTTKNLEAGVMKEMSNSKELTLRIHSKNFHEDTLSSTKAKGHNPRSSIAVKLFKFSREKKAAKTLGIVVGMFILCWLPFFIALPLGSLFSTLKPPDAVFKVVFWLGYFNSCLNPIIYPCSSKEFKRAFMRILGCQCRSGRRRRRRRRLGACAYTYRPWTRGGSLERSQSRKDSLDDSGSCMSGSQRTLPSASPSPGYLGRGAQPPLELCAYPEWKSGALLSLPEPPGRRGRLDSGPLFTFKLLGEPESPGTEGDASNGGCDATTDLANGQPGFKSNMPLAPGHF
Experimental: as §1, §2

anaesthetised rats = test: Intracavernous and blood pressure recording in rats; assay type: in vivo, rat
Experimental: Rats were anaesthetised by an intraperitoneal injection of urethane (1.5 g/kg in sterile saline) and placed on an homeothermic blanket. Their temperature was maintained at 37° C. Rats were tracheotomized to facilitate spontaneous breathing and to prevent aspiration of saliva. A catheter filled with heparinized saline (25 IU/ml) was placed into the carotid to record mean blood pressure (BP, mmHg). The penis was desheathed and the corpora cavernosa were exposed. A 25-gauge stainless-steel needle was inserted into one corpus cavernosum to record intracavernous pressure (ICP in mmHg). […] Pressure catheters were connected to pressure transducers (Model 750, Elcomatic Ltd, Glasgow, UK).
Following a resting period of 10 minutes, the compound solvent was delivered intracavernously (50 μl/injection). Then, increasing doses of one compound were injected every ten minutes by the same route. Five injections (one solvent plus four cumulative doses) were performed in each rat, and five rats were used for the study of one compound. For each injection and for each compound, mean BP averaged over the ten minutes following the injection was measured. The maximal ICP value reached during the ten-minute period following an injection was also recorded. In these experiments, all the compounds tested were dissolved and diluted in propylene glycol-Sorensen solvent.

rat α1d-adrenoceptor = biological target: T3, rat α1d-adrenoceptor (Rattus norvegicus, UniProt P23944); test: [3H]Prazosin binding, rat α1d-adrenoceptor in COS-7 cell membranes; conditions: COS-7 membranes, read-out: Affinity (Ki) α1d, animal cloned receptors
T3 construct: expressed in transfected cells; host or cells: COS-7 cells (transient), membranes
T3 sequence (P23944 1-561): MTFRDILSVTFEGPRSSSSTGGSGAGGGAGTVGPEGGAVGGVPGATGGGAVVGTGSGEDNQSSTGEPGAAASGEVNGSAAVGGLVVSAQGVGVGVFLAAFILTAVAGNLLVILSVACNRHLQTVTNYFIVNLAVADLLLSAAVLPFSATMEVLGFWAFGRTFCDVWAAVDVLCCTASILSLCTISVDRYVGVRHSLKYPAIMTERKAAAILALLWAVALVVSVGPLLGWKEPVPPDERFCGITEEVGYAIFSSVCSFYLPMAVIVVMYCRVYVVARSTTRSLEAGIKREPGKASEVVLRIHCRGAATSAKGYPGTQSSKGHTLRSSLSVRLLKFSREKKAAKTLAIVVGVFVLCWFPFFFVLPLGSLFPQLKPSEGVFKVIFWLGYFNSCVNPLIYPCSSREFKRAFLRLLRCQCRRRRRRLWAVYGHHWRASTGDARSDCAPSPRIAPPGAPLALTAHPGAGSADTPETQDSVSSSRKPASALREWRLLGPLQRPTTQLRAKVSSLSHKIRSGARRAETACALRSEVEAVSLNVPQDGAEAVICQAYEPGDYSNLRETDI
Experimental: as §1, §2

COc1cc2nc(N3CCN(C(=O)COc4c(OC)cccc4C(C)C)CC3)nc(N)c2cc1OC.Cl [Compound A, 4-Amino-6,7-dimethoxy-2-[4-[(2-isopropyl-6-methoxyphenoxy)acetyl]-1-piperazinyl]quinazoline hydrochloride]
DBP (anaesthetised dogs; 3 μg/kg intracavernous): 116.0 ± 5.9 mmHg | DT (duration of tumescence) (anaesthetised dogs; 3 μg/kg intracavernous): 1.2 ± 0.2 min | ICP (anaesthetised dogs; 3 μg/kg intracavernous): 26.7 ± 8.7 mmHg | SBP (anaesthetised dogs; 3 μg/kg intracavernous): 155.3 ± 5.5 mmHg | SBPICP (SBP at the time of maximal ICP value) (anaesthetised dogs; 3 μg/kg intracavernous): 156.7 ± 6.8 mmHg | increase of ICP in comparison with basal ICP values (anaesthetised dogs; 3 μg/kg intracavernous): 12 mmHg | DBP (anaesthetised dogs; 10 μg/kg intracavernous): 120.0 ± 5.9 mmHg | DT (duration of tumescence) (anaesthetised dogs; 10 μg/kg intracavernous): 15.0 ± 8.4 min | ICP (anaesthetised dogs; 10 μg/kg intracavernous): 75.0 ± 32.4 mmHg | SBP (anaesthetised dogs; 10 μg/kg intracavernous): 157.5 ± 6.6 mmHg | SBPICP (SBP at the time of maximal ICP value) (anaesthetised dogs; 10 μg/kg intracavernous): 158.5 ± 7.4 mmHg | DBP (anaesthetised dogs; 30 μg/kg intracavernous): 117.5 ± 6.5 mmHg | DT (duration of tumescence) (anaesthetised dogs; 30 μg/kg intracavernous): 8.3 ± 3.2 min | ICP (anaesthetised dogs; 30 μg/kg intracavernous): 91.5 ± 26.9 mmHg | SBP (anaesthetised dogs; 30 μg/kg intracavernous): 154.0 ± 6.6 mmHg | SBPICP (SBP at the time of maximal ICP value) (anaesthetised dogs; 30 μg/kg intracavernous): 156.5 ± 5.9 mmHg | DBP (anaesthetised dogs; 100 μg/kg intracavernous): 113.0 ± 7.3 mmHg | DT (duration of tumescence) (anaesthetised dogs; 100 μg/kg intracavernous): 13.7 ± 5.6 min | ICP (anaesthetised dogs; 100 μg/kg intracavernous): 95.0 ± 23.3 mmHg | SBP (anaesthetised dogs; 100 μg/kg intracavernous): 147.5 ± 7.6 mmHg | SBPICP (SBP at the time of maximal ICP value) (anaesthetised dogs; 100 μg/kg intracavernous): 148.5 ± 6.0 mmHg | DBP (anaesthetised dogs; 300 μg/kg intracavernous): 107.5 ± 7.4 mmHg | ICP (anaesthetised dogs; 300 μg/kg intracavernous): 111.0 ± 10.9 mmHg | SBP (anaesthetised dogs; 300 μg/kg intracavernous): 140.0 ± 7.4 mmHg | SBPICP (SBP at the time of maximal ICP value) (anaesthetised dogs; 300 μg/kg intracavernous): 142.0 ± 6.5 mmHg | increase of ICP in comparison with basal ICP values (anaesthetised dogs; 300 μg/kg intracavernous): 96.5 mmHg | duration of action compared with reference compounds (anaesthetised dogs; Compound B at the highest dose tested): higher than that of the reference compounds tested | hypotension computed on diastolic blood pressure (change) (anaesthetised dogs; dose-dependent over 3-300 μg/kg): −10 to −19 mmHg | decrease of blood pressure accompanying the ICP/BP increase (FIG. 2) (anaesthetised dogs; intracavernous): ≤ 20% | effect on ICP (in words) (anaesthetised dogs; intracavernous injection): dose-dependently increased ICP | Ki (bovine α1a-adrenoceptor): 7.5 nM | Ki (hamster α1b-adrenoceptor): 0.45 nM | BP (anaesthetised rats; 10 μg/kg intracavernous): 91.3 ± 9.4 mmHg | ICP (anaesthetised rats; 10 μg/kg intracavernous): 36.8 ± 8.7 mmHg | BP (anaesthetised rats; 30 μg/kg intracavernous): 82.7 ± 11.0 mmHg | ICP (anaesthetised rats; 30 μg/kg intracavernous): 37.6 ± 10.1 mmHg | BP (anaesthetised rats; 100 μg/kg intracavernous): 74.8 ± 9.3 mmHg | ICP (anaesthetised rats; 100 μg/kg intracavernous): 38.7 ± 12.3 mmHg | BP (anaesthetised rats; 300 μg/kg intracavernous): 72.5 ± 5.6 mmHg | ICP (anaesthetised rats; 300 μg/kg intracavernous, hydrochloride): 50.6 mmHg and 50.6 ± 13.7 mmHg | effect on ICP (in words) (anaesthetised rats; intracavernous injection): dose-dependently increased ICP | decrease of blood pressure accompanying the ICP/BP increase (FIG. 1) (anaesthetised rats; intracavernous, 10-300 μg): ≤ 20% | decrease of BP (anaesthetised rats; intracavernous, over the dose range up to 300 μg/kg): about 30% | Ki (rat α1d-adrenoceptor): 10.3 nM
